Entries after “also recorded” stand apart in the source; their conditions may differ. Values belong to the substance of their own block, whether it stands above or below them.
What was measured:
B. subtilis DnaN = biological target: T1, B. subtilis DnaN (Bacillus subtilis, UniProt P05649); assay type: binding
T1 sequence (P05649 1-378): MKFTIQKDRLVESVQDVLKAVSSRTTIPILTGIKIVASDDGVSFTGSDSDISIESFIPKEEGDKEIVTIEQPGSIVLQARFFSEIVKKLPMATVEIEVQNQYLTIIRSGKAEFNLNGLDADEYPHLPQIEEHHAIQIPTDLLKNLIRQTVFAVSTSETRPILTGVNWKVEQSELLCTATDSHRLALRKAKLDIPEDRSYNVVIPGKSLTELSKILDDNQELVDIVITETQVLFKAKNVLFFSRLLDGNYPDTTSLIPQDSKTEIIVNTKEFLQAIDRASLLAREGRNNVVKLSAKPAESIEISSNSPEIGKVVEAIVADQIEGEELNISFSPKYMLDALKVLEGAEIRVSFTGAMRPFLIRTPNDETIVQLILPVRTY

E. coli clamp = conditions: cited from earlier work
viability = conditions: some effects on DNA damage response and mutagenesis; cited from earlier work

Substance: FAM-Ahx-DDAMGLALDE-NH2
- binding (FP response) (B. subtilis DnaN; pH 7.5): lack of binding; also recorded: deficient in clamp binding in FP assays

- affinity class in words (B. subtilis DnaN): only micromolar affinity
Substance: QLSLF
- affinity class in words (E. coli clamp): submicromolar affinity

Substance: ATSMAF [εQ]
- effect on viability (viability): no effect on viability

Substance: QLSLPL [εL]
- effect on viability (viability): no effect on viability

— paper PMC11952451 (bioRxiv, 2025)
